Test results: publication PMC9494960, “Antiamoebic Activity of Imidazothiazole Derivatives against Opportunistic Pathogen Acanthamoeba castellanii” (Antibiotics, 2022)

Assays:
HeLa cells = experiment: In vitro cytotoxicity, lactate dehydrogenase (LDH) assay; format: cell-based, human; conditions: 50 µM, 24 h, LDH release
Description: HeLa cells were obtained from the American Type Culture Collection (ATCC CCL-2) and grown at 37 °C with 5% CO2 and 95% humidity in RPMI supplemented with 10% fetal bovine serum (FBS), 1% minimum essential medium amino acids, 1% Penicillin-Streptomycin (Pen-Strep) and 1% L-glutamine. The media was removed aseptically, and cells were detached enzymatically using 2 mL of trypsin EDTA. Next, culture containing dislodged cells was centrifuged at 2500× g for 5 min. The cell pellet was resuspended in the above-mentioned media, subsequently added into 96-well plates and utilized in different assays. In vitro cytotoxic effects of the tested molecules were determined using Lactate dehydrogenase (LDH) assays against human cells. In brief, 50 µM concentration of the tested compounds were incubated with HeLa cells monolayer for 24 h at 37 °C with 5% CO2 in humidified conditions. After this incubation, 0.1% triton X-100 was added to the positive control wells and incubated the plate for 45 min at 37 °C. Then, an equal volume of cells supernatant containing liberated LDH enzyme was mixed with an equal volume of LDH kit reagents (Cytotoxicity Detection kit; Roche Diagnostics, Indianapolis, IN, USA). The positive and negative controls were cell monolayers treated with 0.1 percent Triton X-100 and in RPMI alone. The plate was subjected to multi-plate reader and absorbance was recorded at 490 nm. The percent cytotoxicity was calculated using given formula; % Cell cytotoxicity = sample value − negative control value/positive control value − negative control value × 100.

[1] = system: A. castellanii genotype T4 (ATCC 50492) trophozoites; experiment: Amoebicidal assay (Trypan blue exclusion, haemocytometer counting); format: cell-based, Acanthamoeba castellanii; conditions: for Amoebicidal Activity Inhibition % ± SEM: 50 µM concentration, Supplementary Table S1; for amoebicidal effects / antiamoebic activity against A. castellanii: 50 µM, 24 h, 30 °C; for IC50: tested at 12.5, 25, 50 and 100 µM against A. castellanii
Description: A. castellanii genotype T4 (ATCC 50492) trophozoites were used in this study. The amoebae were axenically cultivated at 30 °C in T-75 cm^3 culture flask using a proteose-peptone yeast extract-glucose (PYG) broth culture. Upon confluency, amoeba cultured flask was placed on ice for 10 min followed by gently tapping to dislodge the adhered trophozoites. Next, culture was centrifuged at 3000× g for 5 min. The supernatant was discarded and the pellet was re-suspended in 1 mL of Roswell Park Memorial Institute (RPMI) media. Finally, amoebae were counted via haemocytometer microscopically and the desired initial inoculum (5 × 10^5) was adjusted and used in different assays. Different molecules were tested against A. castellanii to examine their antiamoebic effects as previously reported. Briefly, A. castellanii (5 × 10^5) were incubated with 50 µM of the tested compounds for 24 h at 30 °C with a final assays volume of 0.5 mL in a 24-well plate. For controls, amoebae cultured in RPMI alone and with 0.25% sodium dodecyl sulfate (SDS) was taken as negative and positive control, respectively. Finally, each well was stained with Trypan blue (0.1%) and viable amoebae trophozoites were enumerated by haemocytometer. In some trails, these compounds were tested at different concentrations (12.5, 25, 50 and 100 µM) to determine their 50% inhibitory concentration (IC50) against A. castellanii.

[2] = system: A. castellanii binding to HeLa cells; experiment: Adhesion assay: amoebae binding to human cells; format: cell-based, Acanthamoeba castellanii; conditions: amoebae pre-treated with 50 µM for 2 h; 60 min on HeLa monolayer
Description: Adhesion assays were performed to determine how the tested molecules affect the binding capability of amoebae to human cells. Firstly, A. castellanii (5 ×10^5) trophozoites were treated with 50 µM of the compounds in serum-free RPMI medium at 30 °C for 2 h. Next, pre-treated amoebae were centrifuged at 3000× g for 5 min and re-suspended the amoeba in 200 µL of RPMI medium. The total assay volume including pre-treated amoeba was transferred to a confluent HeLa cell monolayer cultured in 96-well plates. For control, amoebae trophozoites alone were added to HeLa cell monolayer. The plates were incubated for 60 min at 37 °C with 5% CO2 and 95% humidity and amoebae (unbound) were then counted by haemocytometer. Percent bound amoebae was calculated using the following formula: % amoebae (bound) = 100 − amoebae (unbound)(1)

human cell lines = experiment: MTT assay (EC50/CC50 and MNTD90); format: cell-based; conditions: for CC50: 50% effective/cytotoxic concentration (CC50), tested at 12.5–100 µM; for EC90: Maximum Non-Toxic Dose, read-out: MNTD/EC90
[3] = system: A. castellanii trophozoites; experiment: Encystation assay; format: cell-based, Acanthamoeba castellanii; conditions: 50 µM, 16% glucose, 30 °C, 48–72 h; negative control 100%
Description: Encystation assays were performed to determine the effects of the tested compounds to prevent the differentiation of A. castellanii trophozoites into the cyst form and 50 µM of the tested compounds were utilized. Briefly, A. castellanii (1 × 10^6) trophozoites were incubated with these compounds with 16% filter-sterilized glucose (as encystation medium) at 30 °C 48–72 h. A. castellanii cultured alone in 16% glucose was taken as negative control. After this incubation, 0.1% sodium dodecyl sulfate (SDS) was added to each well and agitated the plate for 20 min. The SDS resistant cysts were enumerated using a haemocytometer and data was recoded.

Row | SMILES | Amoebicidal Activity Inhibition % ± SEM [1] | IC50 [1] [µM] | further results
1 | COc1cccc(NC(=O)NCCNc2nccc(-c3c(-c4ccc(F)cc4)nc4sccn34)n2)c1 [Compound 1a] | 7.70% ± 3.57% |  | cytotoxicity against HeLa cells (HeLa cells): 35%
2 | O=C(NCCNc1nccc(-c2c(-c3ccc(F)cc3)nc3sccn23)n1)Nc1cccc(C(F)(F)F)c1 [Compound 1b] | 12.86% ± 5.93% |  | 
3 | O=C(NCCNc1nccc(-c2c(-c3ccc(F)cc3)nc3sccn23)n1)Nc1cc(C(F)(F)F)cc(C(F)(F)F)c1 [Compound 1c] | 17.28% ± 1.88% |  | 
4 | Cc1ccc(C(=O)NCCNc2nccc(-c3c(-c4ccc(F)cc4)nc4sccn34)n2)cc1 [Compound 1d] | 39.50% ± 1.53% |  | 
5 | COc1ccc(C(=O)NCCNc2nccc(-c3c(-c4ccc(F)cc4)nc4sccn34)n2)cc1OC [Compound 1e] | 44.50% ± 1.79% |  | inhibition of amoebae binding to human cells [2]: 40%
6 | O=C(NCCNc1nccc(-c2c(-c3ccc(F)cc3)nc3sccn23)n1)c1ccc2c(c1)OCCO2 [Compound 1f] | 40.50% ± 4.84% |  | 
7 | O=C(NCCNc1nccc(-c2c(-c3ccc(F)cc3)nc3sccn23)n1)c1ccccc1O [Compound 1g] | 42.20% ± 3.29% |  | 
8 | O=C(NCCNc1nccc(-c2c(-c3ccc(F)cc3)nc3sccn23)n1)c1cccc(C(F)(F)F)c1 [Compound 1h] | 38.16% ± 3.74% |  | 
9 | Cc1cn(-c2cc(C(=O)NCCNc3nccc(-c4c(-c5ccc(F)cc5)nc5sccn45)n3)cc(C(F)(F)F)c2)cn1 [Compound 1j] | 42.34% ± 3.81% |  | 
10 | O=C(NCCNc1nccc(-c2c(-c3ccc(F)cc3)nc3sccn23)n1)c1cc(N2CCOCC2)cc(C(F)(F)F)c1 [Compound 1k] | 16.58% ± 6.08% |  | amoebicidal effects / antiamoebic activity against A. castellanii [1]: did not show promising antiamoebic activity
11 | CC(C)(C)OC(=O)N1CCN(CCNc2nccc(-c3c(-c4ccc(F)cc4)nc4sccn34)n2)S1(=O)=O [Compound 1l] | 47.41% ± 1.67% | 59.9 | inhibition of amoebae binding to human cells [2]: 42%
12 | COc1cccc(-c2nc3sccn3c2-c2ccnc(NCCNC(=O)Nc3cc(C(F)(F)F)cc(C(F)(F)F)c3)n2)c1 [Compound 1n] | 51.05% ± 2.36% | 47.5 | CC50 (human cell lines): 648 µM; EC90 (human cell lines): 16.4 µM
13 | COc1cccc(-c2nc3sccn3c2-c2ccnc(NCCNC(=O)c3ccccc3)n2)c1 [Compound 1o] | 11.78% ± 11.34% |  | amoebicidal effects / antiamoebic activity against A. castellanii [1]: did not show promising antiamoebic activity
14 | COc1cccc(-c2nc3sccn3c2-c2ccnc(NCCNC(=O)c3ccccc3O)n2)c1 [Compound 1p] | 36.42% ± 5.43% |  | 
15 | COc1cccc(-c2nc3sccn3c2-c2ccnc(NCCNC(=O)c3cccc(C(F)(F)F)c3)n2)c1 [Compound 1q] | 52.41% ± 5.31% | 47.7 | cytotoxicity against HeLa cells (HeLa cells): 38%; CC50 (human cell lines): 584 µM; EC90 (human cell lines): 30.6 µM
16 | COc1cccc(-c2nc3sccn3c2-c2ccnc(NCCNC(=O)c3cc(C(F)(F)F)cc(C(F)(F)F)c3)n2)c1 [Compound 1r] | 44.91% ± 8.42% | 64.7 | CC50 (human cell lines): 183 µM; EC90 (human cell lines): 33.9 µM
17 | COc1cccc(-c2nc3sccn3c2-c2ccnc(NCCNC(=O)c3ccc(N4CCOCC4)c(C(F)(F)F)c3)n2)c1 [Compound 1s] | 39.10% ± 2.31% |  | 
18 | COc1cccc(-c2nc3sccn3c2-c2ccnc(NCCNC(=O)c3cc(N4CCOCC4)cc(C(F)(F)F)c3)n2)c1 [Compound 1t] | 17.46% ± 3.75% |  | amoebicidal effects / antiamoebic activity against A. castellanii [1]: did not show promising antiamoebic activity
19 | O=C(NCCNc1nccc(-c2c(-c3cccc(O)c3)nc3sccn23)n1)Nc1ccccc1 [Compound 1u] | 12.66% ± 5.04% |  | amoebicidal effects / antiamoebic activity against A. castellanii [1]: did not show promising antiamoebic activity
20 | O=C(NCCNc1nccc(-c2c(-c3cccc(O)c3)nc3sccn23)n1)Nc1cccc(C(F)(F)F)c1 [Compound 1v] | 44.86% ± 2.98% | 60 | CC50 (human cell lines): 222 µM; EC90 (human cell lines): 5.36 µM
21 | O=C(NCCNc1nccc(-c2c(-c3cccc(O)c3)nc3sccn23)n1)Nc1cc(C(F)(F)F)cc(C(F)(F)F)c1 [Compound 1w] | 50.25% ± 4.67% | 46.3 | CC50 (human cell lines): 304 µM; EC90 (human cell lines): 36.1 µM
22 | O=C(NCCNc1nccc(-c2c(-c3cccc(O)c3)nc3sccn23)n1)c1ccccc1 [Compound 1x] | 48.02% ± 3.69% | 54 | EC90 (human cell lines): 102 µM
23 | O=C(NCCNc1nccc(-c2c(-c3cccc(O)c3)nc3sccn23)n1)c1ccccc1O [Compound 1y] | 12.50% ± 4.68% |  | amoebicidal effects / antiamoebic activity against A. castellanii [1]: did not show promising antiamoebic activity
24 | O=C(NCCNc1nccc(-c2c(-c3cccc(O)c3)nc3sccn23)n1)c1cccc(C(F)(F)F)c1 [Compound 1z] | 52.53% ± 1.67% | 44.8 | CC50 (human cell lines): 412 µM; EC90 (human cell lines): 80.9 µM; inhibition of amoebae binding to human cells [2]: 42%; encystation blocked (trophozoites prevented from converting into cysts) [3]: 60%
25 | O=C(NCCNc1nccc(-c2c(-c3cccc(O)c3)nc3sccn23)n1)c1cc(C(F)(F)F)cc(C(F)(F)F)c1 [Compound 1za] | 15.71% ± 6.61% |  | amoebicidal effects / antiamoebic activity against A. castellanii [1]: did not show promising antiamoebic activity
26 | O=C(NCCNc1nccc(-c2c(-c3cccc(O)c3)nc3sccn23)n1)c1cc(N2CCOCC2)cc(C(F)(F)F)c1 [Compound 1zc] | 14.79% ± 3.19% |  | amoebicidal effects / antiamoebic activity against A. castellanii [1]: did not show promising antiamoebic activity
27 | CN1CCN(CCNc2nccc(-c3c(-c4cccc(O)c4)nc4sccn34)n2)S1(=O)=O [Compound 1zd] | 58.00% ± 3.41% | 41 | cytotoxicity against HeLa cells (HeLa cells): 37%; amoebicidal effects / antiamoebic activity against A. castellanii [1]: 58%; EC90 (human cell lines): 145 µM; inhibition of amoebae binding to human cells [2]: 42%; encystation blocked (trophozoites prevented from converting into cysts) [3]: 62%
